The NIST ThermoML archive (doi:10.1016/j.jct.2015.02.019)
± gives the expanded uncertainty stated by the source.

Tests used:
[1] = xn = mol fraction of the nth substance listed; conditions: 298.15 K, 100 kPa, Liquid, Vibrating tube method
[2] = excess molar enthalpy (molar enthalpy of mixing); xn = mol fraction of the nth substance listed; conditions: 298.15 K, 100 kPa, Liquid, Calvet calorimetry
[3] = 298.15 K; 100 kPa; Liquid; Vibrating tube method
[4] = refractive index (Na D-line) (dimensionless); conditions: 298.15 K; 101.33 kPa; Liquid; Standard Abbe refractometry

`COC=O` [methyl methanoate] + CO gave a mass density ([1]; x1 = 0.0337) of 795.73 ± 0.18 kg/m3, a mass density ([1]; x1 = 0.0833) of 808.8 ± 0.18 kg/m3 and a mass density ([1]; x1 = 0.1557) of 826.74 ± 0.17 kg/m3. It also gave a mass density ([1]; x1 = 0.19) of 834.77 ± 0.16 kg/m3, a mass density ([1]; x1 = 0.2499) of 848.14 ± 0.16 kg/m3 and a mass density ([1]; x1 = 0.3219) of 863.26 ± 0.15 kg/m3. It also gave a mass density ([1]; x1 = 0.3906) of 876.73 ± 0.15 kg/m3, a mass density ([1]; x1 = 0.4946) of 895.61 ± 0.15 kg/m3 and a mass density ([1]; x1 = 0.5416) of 903.58 ± 0.15 kg/m3. It also gave a mass density ([1]; x1 = 0.6467) of 920.31 ± 0.15 kg/m3, a mass density ([1]; x1 = 0.7271) of 932.1 ± 0.16 kg/m3 and a mass density ([1]; x1 = 0.7815) of 939.62 ± 0.16 kg/m3. For the same molecule, the mass density ([1]; x1 = 0.8533) was 949.01 ± 0.17 kg/m3, the mass density ([1]; x1 = 0.8968) was 954.39 ± 0.17 kg/m3 and the mass density ([1]; x1 = 0.9357) was 959.02 ± 0.18 kg/m3. The mass density ([1]; x1 = 1) was 966.28 ± 0.18 kg/m3, the excess molar enthalpy ([2]; x1 = 0.02) was 0.0179 ± 0.000478 kcal/mol and the excess molar enthalpy ([2]; x1 = 0.0487) was 0.0428 ± 0.000956 kcal/mol. The excess molar enthalpy ([2]; x1 = 0.0833) was 0.0743 ± 0.00167 kcal/mol, the excess molar enthalpy ([2]; x1 = 0.1225) was 0.105 ± 0.00239 kcal/mol and the excess molar enthalpy ([2]; x1 = 0.167) was 0.138 ± 0.00311 kcal/mol. The excess molar enthalpy ([2]; x1 = 0.2135) was 0.168 ± 0.00359 kcal/mol, the excess molar enthalpy ([2]; x1 = 0.2613) was 0.195 ± 0.0043 kcal/mol and the excess molar enthalpy ([2]; x1 = 0.3086) was 0.218 ± 0.00478 kcal/mol. The excess molar enthalpy ([2]; x1 = 0.3501) was 0.236 ± 0.00502 kcal/mol, the excess molar enthalpy ([2]; x1 = 0.3644) was 0.241 ± 0.00526 kcal/mol and the excess molar enthalpy ([2]; x1 = 0.3943) was 0.252 ± 0.0055 kcal/mol. It also gave an excess molar enthalpy ([2]; x1 = 0.4077) of 0.257 ± 0.0055 kcal/mol, an excess molar enthalpy ([2]; x1 = 0.4572) of 0.27 ± 0.00574 kcal/mol and an excess molar enthalpy ([2]; x1 = 0.5127) of 0.282 ± 0.00598 kcal/mol. For the same molecule, the excess molar enthalpy ([2]; x1 = 0.5783) was 0.286 ± 0.00621 kcal/mol, the excess molar enthalpy ([2]; x1 = 0.646) was 0.282 ± 0.00598 kcal/mol and the excess molar enthalpy ([2]; x1 = 0.7178) was 0.264 ± 0.00574 kcal/mol. The excess molar enthalpy ([2]; x1 = 0.7842) was 0.235 ± 0.00502 kcal/mol, the excess molar enthalpy ([2]; x1 = 0.8517) was 0.193 ± 0.00406 kcal/mol and the excess molar enthalpy ([2]; x1 = 0.9098) was 0.14 ± 0.00311 kcal/mol. For the same molecule, the excess molar enthalpy ([2]; x1 = 0.9505) was 0.081 ± 0.00191 kcal/mol.
Molecule `CO` [methanol] + CCCCC(=O)OC has a mass density ([1]; x2 = 0) of 786.4 ± 0.15 kg/m3.
With `CCCCC(=O)OC` [methyl pentanoate] + CO the mass density ([1]; x1 = 0.0235) was 793.56 ± 0.19 kg/m3, the mass density ([1]; x1 = 0.062) was 803.85 ± 0.18 kg/m3 and the mass density ([1]; x1 = 0.0741) was 806.78 ± 0.18 kg/m3. It also gave a mass density ([1]; x1 = 0.1314) of 818.95 ± 0.17 kg/m3, a mass density ([1]; x1 = 0.1512) of 822.61 ± 0.16 kg/m3 and a mass density ([1]; x1 = 0.2017) of 830.95 ± 0.16 kg/m3. It also gave a mass density ([1]; x1 = 0.248) of 837.51 ± 0.16 kg/m3, a mass density ([1]; x1 = 0.304) of 844.36 ± 0.16 kg/m3 and a mass density ([1]; x1 = 0.3501) of 849.28 ± 0.16 kg/m3. For the same molecule, the mass density ([1]; x1 = 0.4499) was 858.16 ± 0.17 kg/m3, the mass density ([1]; x1 = 0.5121) was 862.75 ± 0.18 kg/m3 and the mass density ([1]; x1 = 0.6073) was 868.69 ± 0.19 kg/m3. The mass density ([1]; x1 = 0.6865) was 872.86 ± 0.21 kg/m3, the mass density ([1]; x1 = 0.7472) was 875.67 ± 0.22 kg/m3 and the mass density ([1]; x1 = 0.7884) was 877.42 ± 0.23 kg/m3. For the same molecule, the mass density ([1]; x1 = 0.7982) was 877.81 ± 0.24 kg/m3, the mass density ([1]; x1 = 0.8786) was 880.85 ± 0.26 kg/m3 and the mass density ([1]; x1 = 0.963) was 883.66 ± 0.29 kg/m3. The mass density ([1]; x1 = 1) was 884.78 ± 0.3 kg/m3, the excess molar enthalpy ([2]; x1 = 0.0244) was 0.0198 ± 0.000717 kcal/mol and the excess molar enthalpy ([2]; x1 = 0.0512) was 0.0404 ± 0.000956 kcal/mol. For the same molecule, the excess molar enthalpy ([2]; x1 = 0.0839) was 0.0662 ± 0.00143 kcal/mol, the excess molar enthalpy ([2]; x1 = 0.1195) was 0.0915 ± 0.00191 kcal/mol and the excess molar enthalpy ([2]; x1 = 0.1562) was 0.116 ± 0.00263 kcal/mol. For the same molecule, the excess molar enthalpy ([2]; x1 = 0.192) was 0.138 ± 0.00311 kcal/mol, the excess molar enthalpy ([2]; x1 = 0.2279) was 0.159 ± 0.00335 kcal/mol and the excess molar enthalpy ([2]; x1 = 0.264) was 0.176 ± 0.00382 kcal/mol. The excess molar enthalpy ([2]; x1 = 0.2993) was 0.196 ± 0.0043 kcal/mol, the excess molar enthalpy ([2]; x1 = 0.3336) was 0.209 ± 0.00454 kcal/mol and the excess molar enthalpy ([2]; x1 = 0.367) was 0.22 ± 0.00478 kcal/mol. The excess molar enthalpy ([2]; x1 = 0.3861) was 0.226 ± 0.00478 kcal/mol, the excess molar enthalpy ([2]; x1 = 0.4156) was 0.237 ± 0.00502 kcal/mol and the excess molar enthalpy ([2]; x1 = 0.4625) was 0.252 ± 0.0055 kcal/mol. It also gave an excess molar enthalpy ([2]; x1 = 0.5081) of 0.261 ± 0.0055 kcal/mol, an excess molar enthalpy ([2]; x1 = 0.5867) of 0.262 ± 0.0055 kcal/mol and an excess molar enthalpy ([2]; x1 = 0.6887) of 0.24 ± 0.00526 kcal/mol. For the same molecule, the excess molar enthalpy ([2]; x1 = 0.7931) was 0.194 ± 0.0043 kcal/mol, the excess molar enthalpy ([2]; x1 = 0.8868) was 0.127 ± 0.00287 kcal/mol and the excess molar enthalpy ([2]; x1 = 0.957) was 0.0574 ± 0.00143 kcal/mol.
`CCCCC(=O)OC` [methyl pentanoate] showed a mass density [3] of 884.78 ± 0.3 kg/m3 and a refractive index [4] of 1.3952 ± 0.0005.
`CO` [methanol] + COC=O showed a mass density ([1]; x2 = 0) of 786.4 ± 0.15 kg/m3.
`COC=O` [methyl methanoate] gave a mass density [3] of 966.28 ± 0.18 kg/m3 and a refractive index [4] of 1.3411 ± 0.0005.
With `CCCCC(=O)OC` [methyl pentanoate] + COC=O the mass density ([1]; x1 = 0.0555) was 956.19 ± 0.2 kg/m3, the mass density ([1]; x1 = 0.104) was 948.47 ± 0.2 kg/m3 and the mass density ([1]; x1 = 0.1464) was 942.39 ± 0.21 kg/m3. For the same molecule, the mass density ([1]; x1 = 0.2093) was 934.27 ± 0.21 kg/m3, the mass density ([1]; x1 = 0.2537) was 929.22 ± 0.22 kg/m3 and the mass density ([1]; x1 = 0.3106) was 923.46 ± 0.22 kg/m3. For the same molecule, the mass density ([1]; x1 = 0.3493) was 919.84 ± 0.23 kg/m3, the mass density ([1]; x1 = 0.4011) was 915.46 ± 0.23 kg/m3 and the mass density ([1]; x1 = 0.4572) was 911.17 ± 0.24 kg/m3. The mass density ([1]; x1 = 0.5) was 908.17 ± 0.24 kg/m3, the mass density ([1]; x1 = 0.5539) was 904.69 ± 0.25 kg/m3 and the mass density ([1]; x1 = 0.6081) was 901.55 ± 0.26 kg/m3. It also gave a mass density ([1]; x1 = 0.6522) of 899.15 ± 0.26 kg/m3, a mass density ([1]; x1 = 0.7258) of 895.5 ± 0.27 kg/m3 and a mass density ([1]; x1 = 0.7765) of 893.24 ± 0.27 kg/m3. The mass density ([1]; x1 = 0.836) was 890.8 ± 0.28 kg/m3, the mass density ([1]; x1 = 0.9031) was 888.23 ± 0.29 kg/m3 and the mass density ([1]; x1 = 1) was 884.78 ± 0.3 kg/m3. It also gave an excess molar enthalpy ([2]; x1 = 0.0272) of 0.0141 ± 0.000478 kcal/mol, an excess molar enthalpy ([2]; x1 = 0.0583) of 0.0268 ± 0.000717 kcal/mol and an excess molar enthalpy ([2]; x1 = 0.0932) of 0.0409 ± 0.000956 kcal/mol. It also gave an excess molar enthalpy ([2]; x1 = 0.1292) of 0.055 ± 0.0012 kcal/mol, an excess molar enthalpy ([2]; x1 = 0.172) of 0.0696 ± 0.00143 kcal/mol and an excess molar enthalpy ([2]; x1 = 0.2104) of 0.0813 ± 0.00191 kcal/mol. It also gave an excess molar enthalpy ([2]; x1 = 0.2533) of 0.0906 ± 0.00191 kcal/mol, an excess molar enthalpy ([2]; x1 = 0.2946) of 0.0958 ± 0.00215 kcal/mol and an excess molar enthalpy ([2]; x1 = 0.3096) of 0.0987 ± 0.00215 kcal/mol. It also gave an excess molar enthalpy ([2]; x1 = 0.3486) of 0.101 ± 0.00215 kcal/mol, an excess molar enthalpy ([2]; x1 = 0.3982) of 0.103 ± 0.00215 kcal/mol and an excess molar enthalpy ([2]; x1 = 0.4522) of 0.103 ± 0.00215 kcal/mol. For the same molecule, the excess molar enthalpy ([2]; x1 = 0.5232) was 0.0978 ± 0.00215 kcal/mol, the excess molar enthalpy ([2]; x1 = 0.6056) was 0.0875 ± 0.00191 kcal/mol and the excess molar enthalpy ([2]; x1 = 0.6943) was 0.0727 ± 0.00167 kcal/mol. The excess molar enthalpy ([2]; x1 = 0.7968) was 0.0523 ± 0.0012 kcal/mol, the excess molar enthalpy ([2]; x1 = 0.8656) was 0.0347 ± 0.000717 kcal/mol and the excess molar enthalpy ([2]; x1 = 0.93) was 0.0201 ± 0.000478 kcal/mol.
In the case of `CO` [methanol], the mass density [3] is reported as 786.4 ± 0.15 kg/m3 and the refractive index [4] is reported as 1.3261 ± 0.0005.
`COC=O` [methyl methanoate] + CCCCC(=O)OC gave a mass density ([1]; x2 = 0) of 966.28 ± 0.18 kg/m3.
